Where “and” joins values, the source holds several entries; their conditions need not be identical. Identical values can stand only once. Like-named read-outs stand apart in the source and are kept apart here.
Tests used:
[1] = cited from earlier work
[2] = Serial tail vein bleed PK study in SD rats: methylone measured in plasma after IV or oral methylone or oral methylone prodrugs; assay type: in vivo, Sprague Dawley rats; conditions: methylone in plasma, male SD rats; for half-life: read-out: T½ (converted)
Method in brief: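 Three male Sprague-Dawley rats received methylone at 1 mg/kg IV (saline) or 10 mg/kg PO, or prodrugs at 10 mg/kg PO in 10% DMSO/20% PEG400/70% water, doses as methylone equivalents. Methylone measured in serial plasma samples. Non-compartmental PK parameters derived from nominal doses.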

[3] = male, Sprague-Dawley, rat, plasma, iv, 1 mg/kg, methylone 1 mg/kg IV, individual animals
[4] = male, Sprague-Dawley, rat, plasma, iv, 1 mg/kg, methylone 1 mg/kg IV, mean
[5] = male, Sprague-Dawley, rat, plasma, po, 10 mg/kg, methylone 10 mg/kg oral, individual animals
[6] = male, Sprague-Dawley, rat, plasma, po, 10 mg/kg, methylone 10 mg/kg oral, mean
[7] = methylone 1 mg/kg IV, individual animals
[8] = methylone 10 mg/kg oral, individual animals

SMILES: CNC(C)C(=O)c1ccc2c(c1)OCO2 (racemic) [Methylone, 3,4-methylenedioxy-N-methylcathinone, reference compound]
- reported time to achieve peak effects ([1]; after oral dosing, Poyatos et al., 2021): 1 to 2 h
- Oral Methylone Dose for Drug Activity Level Very Strong ([1]; human, oral, modified from WHO 2014): ≥270 mg
- prolongation of duration of effects by re-dose ([1]; re-dose of one-third to one-half the initial dose, WHO 2014): approximately one
- AUC(0-t) [2, 3]: 163 ng·h/mL
- AUC(0-inf) ([2]; male, Sprague-Dawley, rat, plasma, iv, 1 mg/kg, methylone 1 mg/kg IV, individual animals, read-out: AUC0-inf): 168 ng·h/mL
- Cmax ([2]; male, Sprague-Dawley, rat, plasma, iv, 1 mg/kg, methylone 1 mg/kg IV, individual animals, read-out: Cmax): 192 ng/mL
- Tmax ([2]; male, Sprague-Dawley, rat, plasma, iv, 1 mg/kg, methylone 1 mg/kg IV, individual animals, read-out: Tmax): 15 min
- half-life [2, 3]: 24.6 min
- AUC(0-t) [2, 4]: 142 ng·h/mL
- AUC(0-inf) ([2]; male, Sprague-Dawley, rat, plasma, iv, 1 mg/kg, methylone 1 mg/kg IV, mean, read-out: AUC0-inf): 145 ng·h/mL
- Cmax ([2]; male, Sprague-Dawley, rat, plasma, iv, 1 mg/kg, methylone 1 mg/kg IV, mean, read-out: Cmax): 172 ng/mL
- Tmax ([2]; male, Sprague-Dawley, rat, plasma, iv, 1 mg/kg, methylone 1 mg/kg IV, mean, read-out: Tmax): 15 min
- half-life [2, 4]: 23.7 min
- AUC(0-t) [2, 5]: 636 ng·h/mL
- AUC(0-inf) ([2]; male, Sprague-Dawley, rat, plasma, po, 10 mg/kg, methylone 10 mg/kg oral, individual animals, read-out: AUC0-inf): 729 ng·h/mL
- half-life [2, 5]: 135 min
- AUC(0-t) [2, 6]: 681 ng·h/mL
- AUC(0-inf) ([2]; male, Sprague-Dawley, rat, plasma, po, 10 mg/kg, methylone 10 mg/kg oral, mean, read-out: AUC0-inf): 890 ng·h/mL
- Cmax ([2]; male, Sprague-Dawley, rat, plasma, po, 10 mg/kg, methylone 10 mg/kg oral, mean, read-out: Cmax): 170 ng/mL
- Tmax ([2]; male, Sprague-Dawley, rat, plasma, po, 10 mg/kg, methylone 10 mg/kg oral, mean, read-out: Tmax): 70.2 min
- half-life [2, 6]: 148 min
- AUC0-last [2, 7]: 134 ng·h/mL and 128 ng·h/mL
- AUC(0-inf) [2, 7]: 136 ng·h/mL and 131 ng·h/mL
- Cmax [2, 7]: 165 ng/mL and 159 ng/mL
- Tlast [2, 7]: 2.0 h
- T½ [2, 7]: 22.8 min and 24 min
- Tlast ([2]; methylone 1 mg/kg IV, mean): 2.0 h
- AUC0-last [2, 8]: 520 ng·h/mL and 888 ng·h/mL
- AUC(0-inf) [2, 8]: 1050 ng·h/mL
- Cmax [2, 8]: 130 ng/mL and 119 ng/mL and 260 ng/mL
- Tlast [2, 8]: 7.00 h
- Tmax [2, 8]: 60 min and 120 min and 30 min
- T½ [2, 8]: 160 min
- Tlast ([2]; methylone 10 mg/kg oral, mean): 7.00 h

Reference: US20250129054A1 (Terran Biosciences Inc., priority 2022, published 2025)
